Test [1] relates to liver of normal, type 1 DM and type 2 DM mice. The test is described as follows: Glycogen content in liver in vivo (borapetoside A). The note with it: borapetoside A 10 mgkg^−1 i.p. 60 minutes, insulin 0.5 IUkg^−1. Further details: species or system ICR mice. The method, then:
(§1) After three days of acclimatization, the mice had free access to a standard rodent chow (normal mice), a standard rodent chow after single […] streptozotocin (STZ) intraperitoneal injection (T1DM mice), and a fat-rich chow diet and fructose-sweetened water (T2DM mice) for 4 weeks. The induction of Type 1 DM was assessed and confirmed when the mice had plasma glucose levels ≧350 mgdL^−1, accompanied with polyuria, hyperphagia and decreased body weight. The induction Type 2 DM in the mice was assessed by measuring fasting plasma glucose levels and confirmed when plasma glucose level was ≧150 mgdL^−1 after the 4-week induction. The animals were assigned randomly into three groups, with seven animals in each group. In group I, the mice were treated with vehicle, 2% DMSO in normal saline, as the negative control. In group II, the mice were intraperitoneally treated with borapetoside A (0.1-10 mgkg^−1). In group Ill, the positive control, the mice received intraperitoneally metformin (300 mgkg^−1; Sigma Chemical Co., St. Louis, Mo., U.S.A.) or insulin (0.5 IUkg^−1; Insulin Actrapid® HM; Novo Nordisk, Denmark). In the acute study, mice under anesthesia received a single intraperitoneal administration of borapetoside A, negative control, or positive control. In the subacute study, mice received intraperitoneal administrations of borapetoside A, vehicle, or insulin twice a day for seven days.
(§2) The mice were injected with borapetoside A (10 mgkg^−1, interperitoneal) for 60 minutes or insulin (0.5 IUkg^−1, interperitoneal) for 30 minutes. After the treatment, the anesthetic mice were sacrificed by cervical dislocation to collect the soleus muscle and liver. About 40 mg of each sample was dissolved in 1 mol/L KOH at 75° C. for 30 min. The dissolved homogenate was neutralized by glacial acetic acid and then incubated overnight in acetate buffer (0.3 mol/L sodium acetate, pH 4.8) containing amyloglucosidase (Sigma, St. Louis, Mo.). The mixture was then neutralized with 1 mol/L NaOH to stop the reaction. The glycogen contents in the tissue samples were determined as μg of glucose per mg of tissue (wet weight).

Test [2] deals with IL-6-treated C2C12 cells. The test is described as follows: Glycogen content assay in IL-6-treated (insulin resistant) C2C12 cells. The class given is cell-based. The note with it: 30 minutes; for fold increase of glycogen content: IL-6-treated C2C12. How it is done: The C2C12 skeletal muscle cells were cultured in Dulbecco's modified Eagle's medium (DMEM; Gibco/Invitrogen, Carlsbad, Calif.), and the human hepatocellular carcinoma cell line, Hep3B, was cultured in Roswell Park Memorial Institute medium 1640 (RPMI 1640 medium; Gibco/Invitrogen, Carlsbad, Calif.). Cells were cultured at 37° C. in the humidified incubator supplied with 5% CO2. Culture mediums were supplemented with 4.5 mgmL^−1 glucose, penicillin 100 IUmL^−1, streptomycin 100 μgmL^−1 and 10% fetal bovine serum (Gibco/Invitrogen, Carlsbad, Calif.). Only C2C12 cells were then switched to 2% horse serum for 3 days after reaching the 70% confluence. Myotubes formation was achieved after 4 days of incubation, and the cells were used for subsequent experiments. Culture mediums were replaced by serum free DMEM or RPMI for 24 h before experiments (see e.g., procedure described in Sultan et al., 2006).
C2C12 and Hep3B cells were treated with 1 nM insulin, 100 μM metformin, and the assigned concentration of borapetoside A for 30 minutes. To develop the insulin resistance state of cells, C2C12 cells were incubated with IL-6 at 20 ngmL^−1 for 1 hour. Later, the cells were treated with 1 nM insulin, 100 μM metformin, and the assigned concentration of borapetoside A for 30 minutes. After the assigned treatment, cells were washed twice with phosphate buffered saline (PBS). Glycogen content was measured as previously described, with some modifications (see e.g., Savage et al., 2008). The protein concentrations of the cell lysates were determined by using Pierce BCA Protein Assay Kit (Thermo-Scientific, Rockford, Ill.). The glycogen content of each sample was normalized by total protein.

Test [3] has as its system soleus muscle of normal, T1DM and T2DM mice. The test is described as follows: Glycogen content of skeletal muscle (borapetoside C or insulin). The class given is in vivo, ICR mice. The note with it: borapetoside C 5 mg/kg i.p., insulin (Actrapid) 0.5 IU/kg i.p. The method, then: This study was conducted following the University ethical guidelines on animal experimentation and complied with the Guide for the Care and Use of Laboratory Animals published by the US National Institutes of Health (NIH publication no. 85-23, revised 1996). The animal facility was well controlled for temperature (22±1° C.), and humidity (60±5%) and a 12 h/12 h light-dark cycle was maintained with access to food and water ad libitum. Four-week-old male ICR mice were acquired from BioLasco Taiwan Co., Ltd. and maintained at College of Medicine Experimental Animal Center, National Taiwan University. The study was conducted on 8-10 week-old male ICR mice.
T1DM mice were induced by a known method. In brief, an intraperitoneal injection of streptozotocin (STZ; Sigma Chemical Co.; St. Louis, Mo.) at 150 mg/kg was performed in mice that were fasted for 48 h. The induction of T1DM was assessed and confirmed when the mice had plasma glucose levels ≧350 mg/dL, accompanied with polyuria, hyperphagia and decreased body weight. The control mice group received an injection of vehicle and then carried out for 4 weeks. T2DM mice were induced by maintaining on a fat-rich chow diet and fructose-sweetened water for 4 weeks from the age of 4-5 weeks according to previous methods. The induction T2DM mice were assessed by measuring fasting plasma glucose levels and confirmed when plasma glucose level was ≧150 mg/dL after a 4-week induction.
Glycogen content of skeletal muscles was measured by a known method. In brief, mice were injected with borapetoside C (5.0 mg/kg, interperitoneal) for 60 min or insulin (0.5 IU/kg, interperitoneal.) for 30 min, and the soleus muscle was isolated from anesthetized mice. About 40 mg of muscle sample was dissolved in 1 N KOH at 75° C. for 30 min. The dissolved homogenate was neutralized by glacial acetic acid and then incubated overnight in acetate buffer (0.3 M sodium acetate, pH 4.8) containing amyloglucosidase (Sigma, St. Louis, Mo.). The mixture was then neutralized with 1 N NaOH to stop the reaction. The glycogen contents in the tissue samples were determined as μg of glucose per mg of tissue (wet weight).

Test [4] relates to soleus muscle of normal, type 1 DM and type 2 DM mice. The test is described as follows: Glycogen content in soleus muscle in vivo (borapetoside A). Further details: species or system ICR mice. The note with it: borapetoside A 10 mgkg^−1 i.p. 60 minutes, insulin 0.5 IUkg^−1. How it is done:
as §1, §2

For the compound “Insulin: human insulin, Insulin Actrapid HM, a short-acting insulin provided by Novo Nordisk [reference compound]”, in test [1] (mice with type 2 DM), the “glycogen content in liver” value was “failed to enhance”. For the same compound, the glycogen content entry in test [2] (IL-6-induced insulin resistant model, 1 nM insulin) is listed as “not increased”. Besides, the results for the “Glycogen synthesis in skeletal muscle (glycogen content)” value in test [3] (Normal mice), in test [3] (T1DM mice) and in test [3] (T2DM mice) were 30.2 ± 2.0 μg of glucose per mg of tissue (wet weight), 30.0 ± 1.0 μg of glucose per mg of tissue (wet weight) and 20.2 ± 0.6 μg of glucose per mg of tissue (wet weight), respectively. Also, the “glycogen content in soleus muscle” value in test [4] (mice with type 2 DM) is recorded as “failed to enhance”.
As for `C[C@@]12C[C@@H](c3ccoc3)OC(=O)[C@@H]1C[C@@H]1OC(=O)[C@@]3(O)[C@@H](O[C@@H]4O[C@H](CO)[C@@H](O)[C@H](O)[C@H]4O)CC[C@@H]2[C@@]13C` [Borapetoside A, borapetoside A], the “glycogen content in liver” value in test [1] (mice with type 1 DM) is 196.9±15.6 % of vehicle control; in test [1] (mice with type 2 DM), 146.1±12.0 % of vehicle control; in test [1] (normal mice), 257.8±15.8 % of vehicle control. In addition, the “fold increase of glycogen content” value in test [2] (10^−6 mol/L) came out at 1.64±0.05 fold; in test [2] (10^−7 mol/L), 1.38±0.06 fold; in test [2] (10^−8 mol/L), 1.35±0.08 fold. Also, the “glycogen content in soleus muscle” value is 155.6±8.6 % of vehicle control in test [4] (mice with type 1 DM), 171.8±12.0 % of vehicle control in test [4] (mice with type 2 DM) and 116.5±4.2 % of vehicle control in test [4] (normal mice).
On to `COC(=O)C1=CCC[C@H]2[C@]3(C)C[C@@H](c4ccoc4)OC(=O)[C@@H]3C[C@@H](O[C@@H]3O[C@H](CO)[C@@H](O)[C@H](O)[C@H]3O)[C@@]12C` [Borapetoside C, borapetoside C], for which the “Glycogen synthesis in skeletal muscle (glycogen content)” value in test [3] (Normal mice) is 25.1 ± 1.3 μg of glucose per mg of tissue (wet weight); in test [3] (T1DM mice), 23.2 ± 0.7 μg of glucose per mg of tissue (wet weight); in test [3] (T2DM mice), 23.3 ± 0.4 μg of glucose per mg of tissue (wet weight).
